Measured values reported in the supplement of paper PMC11061612.

Tests used:
Experiment in all cases: combination Emax (second highest fraction inhibited in the dose matrix, 72 h); higher = more inhibition; extreme values may be limits of the assay
[1] = test system: 786-0 (Kidney Carcinoma)
In short: (§1)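 Cell lines in DMEM/F12 or RPMI with 10% FBS were plated in 1536-well plates, held 24 hours at 37°C, 5% CO2, then given two-drug dose matrices for 72 hours (DMSO typically 0.2%). Viability was read by CellTiter-Glo 2.0 luminescence and scaled as inhibition from 0 (vehicle wells) to 1 (blank wells). Combination Emax is the second-highest inhibition in the matrix; Bliss excess is observed combination effect minus expected EA + EB − EA·EB, EA and EB being single-agent effects.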

[2] = test system: BALL-1 (B-Lymphoblastic Leukemia)
In short: as §1

[3] = test system: Becker (Low Grade Glioma)
In short: as §1

[4] = test system: CML-T1 (Chronic Myelogenous Leukemia)
In short: as §1

[5] = test system: COLO-684 (Endometrial Carcinoma)
In short: as §1

[6] = test system: Calu-6 (Non-Small Cell Lung Carcinoma)
In short: as §1

[7] = test system: FLO-1 (Esophageal Adenocarcinoma)
In short: as §1

[8] = test system: HTC-C3 (Thyroid Gland Carcinoma)
In short: as §1

[9] = test system: KYSE-70 (Esophageal Squamous Cell Carcinoma)
In short: as §1

[10] = test system: LAMA-84 (Chronic Myelogenous Leukemia)
In short: as §1

[11] = test system: NCI-H1155 (Non-Small Cell Lung Carcinoma)
In short: as §1

[12] = test system: NCI-H1563 (Lung Adenocarcinoma)
In short: as §1

[13] = test system: NCI-H1623 (Lung Adenocarcinoma)
In short: as §1

[14] = test system: NCI-H810 (Non-Small Cell Lung Carcinoma)
In short: as §1

[15] = test system: NKM-1 (Acute Myeloid Leukemia)
In short: as §1

[16] = test system: RL95-2 (Endometrial Carcinoma)
In short: as §1

[17] = test system: RT4 (Bladder Carcinoma)
In short: as §1

[18] = test system: SJRH30 (Rhabdomyosarcoma)
In short: as §1

[19] = test system: SNU-175 (Colorectal Carcinoma)
In short: as §1

SMILES	combination Emax [1]	combination Emax [2]	combination Emax [3]	combination Emax [4]	combination Emax [5]	combination Emax [6]	combination Emax [7]	combination Emax [8]	combination Emax [9]	combination Emax [10]	combination Emax [11]	combination Emax [12]	combination Emax [13]	combination Emax [14]	combination Emax [15]	combination Emax [16]	combination Emax [17]	combination Emax [18]	combination Emax [19]
C[C@@H](c1ccc2nccn2c1)n1nnc2ncc(-c3cnn(C)c3)nc21 [Savolitinib] + CC1(C)CCC(CN2CCN(c3ccc(C(=O)NS(=O)(=O)c4ccc(NCC5CCOCC5)c([N+](=O)[O-])c4)c(Oc4cnc5[nH]ccc5c4)c3)CC2)=C(c2ccc(Cl)cc2)C1 [Venetoclax] (first compound max 1 µM, 7x7, partner max 1 µM)	0.159	1	0.344	0.279	0.174	0.194	0.2	0.127	0.095	0.172	0.149	0.18	0.173	0.194	0.545	0.085	0.12	0.126	0.119
COc1nnc2ccc(N3CCC(c4ccc(OCCN5CCN(C)C(=O)[C@H]5C)cc4)CC3)nn12 [AZD5153] + C[C@@H]1COCCN1C2=NC(=NC(=C2)C3(CC3)[S@](=N)(=O)C)C4=C5C=CNC5=NC=C4 [AZD6738] (first compound max 1 µM, 7x7, partner max 10 µM)	0.754	1	0.536	0.976	0.797	0.87	0.823	0.845	0.424	0.97	0.942	0.664	0.672	0.795	0.98	0.733	0.708	0.945	0.883
COc1nnc2ccc(N3CCC(c4ccc(OCCN5CCN(C)C(=O)[C@H]5C)cc4)CC3)nn12 [AZD5153] + C=CCn1c(=O)c2cnc(Nc3ccc(N4CCN(C)CC4)cc3)nc2n1-c1cccc(C(C)(C)O)n1 [AZD1775] (first compound max 1 µM, partner max 1 µM)	0.641	1	0.384	0.945	0.744	0.854	0.888	0.772	0.47	0.978	0.814	0.564	0.59	0.8	0.904	0.621	0.571	0.942	0.813
Cn1cnc2c(F)c(Nc3ccc(Br)cc3Cl)c(C(=O)NOCCO)cc21 [Selumetinib] + CC(C)n1c(=O)n(C)c2cnc3cc(F)c(-c4ccc(OCCCN5CCCCC5)nc4)cc3c21 [AZD1390] (first compound max 10 µM, 7x7, partner max 0.3 µM)	0.159	0.24	0.235	0.628	0.125	0.672	0.424	0.591	0.168	0.926	0.23	0.161	0.276	0.304	0.504	0.372	0.257	0.0759	0.27
COc1nnc2ccc(N3CCC(c4ccc(OCCN5CCN(C)C(=O)[C@H]5C)cc4)CC3)nn12 [AZD5153] + CCN(CCO)CCCOc1ccc2c(Nc3cc(CC(=O)Nc4cccc(F)c4)[nH]n3)ncnc2c1 [AZD2811] (first compound max 1 µM, 7x7, partner max 1 µM)	0.552	0.948	0.423	0.684	0.553	0.301	0.565	0.818	0.458	0.892	0.726	0.488	0.488	0.694	0.922	0.524	0.516	0.799	0.83
COc1cc2ncnc(Nc3ccc(F)c(Cl)c3)c2cc1OCCCN1CCOCC1 [Gefitinib] + CC(C)n1c(=O)n(C)c2cnc3cc(F)c(-c4ccc(OCCCN5CCCCC5)nc4)cc3c21 [AZD1390] (first compound max 10 µM, 7x7, partner max 0.3 µM)	0.247	0.279	0.126	0.148	0.0995	0.128	0.357	0.0317	0.098	0.315	0.0815	0.228	0.904	0.158	0.167	0.0606	0.128	0	0.456
CC(=O)c1c(C)c2cnc(Nc3ccc(N4CCNCC4)cn3)nc2n(C2CCCC2)c1=O [Palbociclib] + Cn1cnc2c(F)c(Nc3ccc(Br)cc3Cl)c(C(=O)NOCCO)cc21 [Selumetinib] (first compound max 10 µM, 7x7, partner max 10 µM)	0.357	0.458	0.368	0.926	0.153	0.707	0.531	0.728	0.182	0.945	0.21	0.261	0.52	0.0848	0.944	0.561	0.45	0.143	0.549
CC(=O)c1c(C)c2cnc(Nc3ccc(N4CCNCC4)cn3)nc2n(C2CCCC2)c1=O [Palbociclib] + CC1(C)CCC(CN2CCN(c3ccc(C(=O)NS(=O)(=O)c4ccc(NCC5CCOCC5)c([N+](=O)[O-])c4)c(Oc4cnc5[nH]ccc5c4)c3)CC2)=C(c2ccc(Cl)cc2)C1 [Venetoclax] (first compound max 10 µM, 7x7, partner max 1 µM)	0.411	1	0.249	0.932	0.193	0.353	0.495	0.189	0.11	0.496	0.241	0.313	0.248	0.0599	0.946	0.226	0.203	0.0832	0.562
CS(=O)(=O)CCNCc1ccc(-c2ccc3ncnc(Nc4ccc(OCc5cccc(F)c5)c(Cl)c4)c3c2)o1 [Lapatinib] + C[C@@H](Oc1cc(-c2cnn(C3CCNCC3)c2)cnc1N)c1c(Cl)ccc(F)c1Cl [Crizotinib] (first compound max 10 µM, 7x7, partner max 10 µM)	0.992	0.913	0.725	0.965	0.78	0.815	0.881	0.956	0.585	1	0.61	0.776	0.987	0.412	0.965	0.934	0.916	0.955	0.917
COc1nnc2ccc(N3CCC(c4ccc(OCCN5CCN(C)C(=O)[C@H]5C)cc4)CC3)nn12 [AZD5153] + Cc1c2c(nn1C)CSCc1cc(n(C)n1)CSc1cc(c3ccccc3c1)OCCCc1c(C(=O)O)n(C)c3c-2c(Cl)ccc13 [AZD5991] (first compound max 1 µM, 7x7, partner max 1 µM)	0.557	0.98	0.484	0.523	0.67	0.24	0.717	0.745	0.355	0.928	0.646	0.835	1	0.995	1	0.928	0.911	0.97	0.931
CC(=O)c1c(C)c2cnc(Nc3ccc(N4CCNCC4)cn3)nc2n(C2CCCC2)c1=O [Palbociclib] + CN(CC[C@H](CSC1=CC=CC=C1)NC2=C(C=C(C=C2)S(=O)(=O)NC(=O)C3=CC=C(C=C3)N4CCC(CC4)[C@H](C5=CC=CC=C5C6=CC=C(C=C6)Cl)O)S(=O)(=O)C(F)(F)F)CCO [AZD4320] (first compound max 10 µM, 7x7, partner max 1 µM)	0.534	1	–	–	–	0.623	–	0.515	–	–	0.994	0.348	0.387	–	–	0.358	0.383	0.37	0.877
C[C@@H](c1ccc2nccn2c1)n1nnc2ncc(-c3cnn(C)c3)nc21 [Savolitinib] + CN(CC[C@H](CSC1=CC=CC=C1)NC2=C(C=C(C=C2)S(=O)(=O)NC(=O)C3=CC=C(C=C3)N4CCC(CC4)[C@H](C5=CC=CC=C5C6=CC=C(C=C6)Cl)O)S(=O)(=O)C(F)(F)F)CCO [AZD4320] (first compound max 1 µM, 7x7, partner max 1 µM)	0.149	1	–	–	–	0.414	–	0.282	–	–	0.582	0.213	0.255	–	–	0.167	0.376	0.265	0.349
COc1nnc2ccc(N3CCC(c4ccc(OCCN5CCN(C)C(=O)[C@H]5C)cc4)CC3)nn12 [AZD5153] + CN(CC[C@H](CSC1=CC=CC=C1)NC2=C(C=C(C=C2)S(=O)(=O)NC(=O)C3=CC=C(C=C3)N4CCC(CC4)[C@H](C5=CC=CC=C5C6=CC=C(C=C6)Cl)O)S(=O)(=O)C(F)(F)F)CCO [AZD4320] (first compound max 1 µM, 7x7, partner max 1 µM)	0.557	1	–	–	–	0.574	–	0.968	–	–	0.974	0.536	0.46	–	–	0.452	0.545	0.706	0.759
